According to ChEMBL document CHEMBL1201862, “PubChem BioAssay data set” (2004):
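Dose response: 5 concentrations. Exposure: 48 h. Format: 96-well plates. Endpoint: linear interpolation; highest concentration if not reached. The concentration for 50% growth inhibition is given as GI50.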 The source made the active and inactive calls. Rule as the data show it: active = GI50 up to about 1.1 µM and inactive = higher.

Experiments:
Experiment in all cases: NCI tumour cell line growth inhibition, 48 h
[1] = system: ACHN
[2] = system: EKVX
[3] = system: IGROV-1
[4] = system: LOX IMVI
[5] = system: Malme-3M
[6] = system: 786-0
[7] = system: KM12
[8] = system: U-251
[9] = system: CCRF-CEM
[10] = system: SW-620
[11] = system: UACC-62
[12] = system: A549
[13] = system: OVCAR-5
[14] = system: SNB-19
[15] = system: CAKI-1
[16] = system: RXF 393
[17] = system: SR
[18] = system: SF-539

Measured: GI50

N=C(N)NCCCC(Nc1c2ccccc2[n+]([O-])c2ccccc12)C(=O)O (stereo unspecified)
inactive: [1] 23.1 µM | [2] 96.6 µM | [3] > 100 µM | [4] 37.3 µM | [5] 39.4 µM | [6] 67.5 µM | [7] 68.4 µM | [8] 72.3 µM | [9] 33.4 µM | [10] 59.2 µM | [11] 42.5 µM | [12] > 100 µM | [13] 56.5 µM | [14] 64 µM

CCCCNC(=S)OCCC(C)CCCC(C)C (stereo unspecified)
inactive: [15] > 100 µM | [1] > 100 µM | [2] > 100 µM | [3] > 100 µM | [4] > 100 µM | [5] > 100 µM | [6] > 100 µM | [7] > 100 µM | [8] > 100 µM | [9] > 100 µM | [10] > 100 µM | [16] > 100 µM | [17] > 100 µM | [11] > 100 µM | [18] > 100 µM | [12] > 100 µM | [13] > 100 µM | [14] > 100 µM

CN(C)C1=NC2=S(SC(Nc3ccccc3)=N2)S1 (stereo unspecified)
inactive: [15] 26.5 µM | [1] 11.9 µM | [2] 12.9 µM | [3] 15.7 µM | [4] 22.7 µM | [5] 16.1 µM | [6] 28.8 µM | [7] 26.4 µM | [8] 19.4 µM | [9] 15.5 µM | [10] 46.5 µM | [16] 32 µM | [17] 17.1 µM | [11] 21.2 µM | [18] 20.2 µM | [12] 7.85 µM | [13] 34.8 µM | [14] 26.3 µM

CC1CCC2c3c([nH]c4ccccc34)C3C(=O)N(c4ccccc4)C(=O)C3C2C1 (stereo unspecified)
inactive: [15] > 250 µM | [1] 21.8 µM | [2] > 250 µM | [3] 19.7 µM | [4] 42.8 µM | [5] 54.3 µM | [6] 13.3 µM | [7] > 250 µM | [8] 64.9 µM | [9] 20 µM | [10] > 250 µM | [16] 12.2 µM | [17] 65 µM | [11] 30.1 µM | [18] 6.64 µM | [12] 90.8 µM | [13] > 100 µM | [14] 32.6 µM

CCN(CC)CC(=O)NC1c2ccccc2Oc2ccccc21
inactive: [2] > 100 µM | [3] > 100 µM | [4] > 100 µM | [6] > 100 µM | [8] > 100 µM | [9] > 100 µM | [10] > 100 µM | [16] > 100 µM | [17] > 100 µM | [11] > 100 µM | [18] > 100 µM | [12] > 100 µM | [13] > 100 µM | [14] > 100 µM

CN1C(c2ccccc2)CC(C)(O)CC1c1ccccc1 (stereo unspecified)
inactive: [15] > 100 µM | [1] > 100 µM | [2] > 100 µM | [3] > 100 µM | [4] > 100 µM | [5] > 100 µM | [6] > 100 µM | [7] > 100 µM | [8] > 100 µM | [9] > 100 µM | [10] > 100 µM | [16] > 100 µM | [17] > 100 µM | [11] > 100 µM | [18] > 100 µM | [12] > 100 µM | [13] > 100 µM | [14] > 100 µM

C/C(CC(=O)Nc1cccc([N+](=O)[O-])c1)=N\NC(=O)C[n+]1ccccc1
inactive: [2] > 100 µM | [3] > 100 µM | [4] > 100 µM | [5] > 100 µM | [6] > 100 µM | [7] > 100 µM | [8] > 100 µM | [9] > 100 µM | [10] > 100 µM | [16] > 100 µM | [11] > 100 µM | [18] > 100 µM | [12] > 100 µM | [13] > 100 µM

CCOC(=O)C(/C(=N\NC(=O)OC)C(=O)Nc1cc(OC)ccc1OC)c1cnc2ccccc2n1 (stereo unspecified)
inactive: [15] > 100 µM | [1] > 100 µM | [2] > 100 µM | [3] > 100 µM | [4] > 100 µM | [5] > 100 µM | [6] > 100 µM | [8] > 100 µM | [9] > 100 µM | [10] > 100 µM | [16] > 100 µM | [17] > 100 µM | [11] > 100 µM | [18] > 100 µM | [12] > 100 µM

NNC(=O)CCC(=O)Nc1ccc(Cl)cc1Cl
inactive: [15] > 100 µM | [1] > 100 µM | [3] > 100 µM | [4] 43.8 µM | [5] > 100 µM | [6] > 100 µM | [7] > 100 µM | [8] > 100 µM | [9] > 100 µM | [10] > 100 µM | [16] > 100 µM | [17] 6.68 µM | [11] 28.8 µM | [18] > 100 µM | [12] > 100 µM | [13] > 100 µM | [14] > 100 µM

O=CC1CCCc2ccccc21 (stereo unspecified)
inactive: [15] > 100 µM | [1] > 100 µM | [2] > 100 µM | [3] > 100 µM | [4] > 44.1 µM | [5] > 100 µM | [6] > 100 µM | [7] > 100 µM | [8] > 41.5 µM | [9] > 49.7 µM | [10] > 40.4 µM | [16] > 100 µM | [17] > 100 µM | [11] > 100 µM | [12] > 100 µM | [13] > 100 µM | [14] > 100 µM

CC(=O)Nc1ccc(/C=C/C(=O)c2sc(-c3cccnc3)nc2C)cc1
inactive: [15] > 100 µM | [1] > 100 µM | [2] > 100 µM | [3] > 100 µM | [4] > 100 µM | [5] > 100 µM | [6] > 100 µM | [7] > 100 µM | [8] > 100 µM | [9] > 100 µM | [10] > 100 µM | [16] > 100 µM | [11] > 100 µM | [18] > 100 µM | [12] > 100 µM | [13] > 100 µM

COc1ccc(-n2/c(=N/C(=S)N(C)C)ss/c2=N\C(=S)N(C)C)cc1
inactive: [15] > 100 µM | [1] > 100 µM | [2] > 100 µM | [3] 14.2 µM | [4] > 100 µM | [5] > 100 µM | [6] 32.7 µM | [7] 95.7 µM | [8] 25.6 µM | [10] > 100 µM | [16] 29.6 µM | [17] > 100 µM | [11] 4.21 µM | [18] 52.2 µM | [12] > 100 µM | [13] > 100 µM | [14] 11.6 µM

Cc1ccccc1-n1c(=O)c2ncn(CCCl)c2n(-c2ccccc2C)c1=S
inactive: [15] > 100 µM | [1] > 100 µM | [2] > 100 µM | [3] > 100 µM | [4] > 100 µM | [6] > 100 µM | [7] > 100 µM | [8] > 100 µM | [9] > 100 µM | [10] > 100 µM | [16] > 100 µM | [17] > 100 µM | [11] > 100 µM | [18] > 100 µM | [12] > 100 µM | [13] > 100 µM

O=C(CN1CCN(c2cccc(Cl)c2)CC1)N1CCc2c([nH]c3ccccc23)C1c1cccnc1 (stereo unspecified)
inactive: [15] 12.8 µM | [1] 8.87 µM | [2] 16.8 µM | [3] 22.4 µM | [6] 11.8 µM | [7] 4.85 µM | [8] 10.2 µM | [9] 3.15 µM | [10] 7.14 µM | [16] 2.67 µM | [17] 2.23 µM | [11] 11.3 µM | [18] 15.5 µM | [12] 7.13 µM | [13] 3.96 µM | [14] 26.1 µM

COC(=O)N/N=C/c1oc(-c2cccc([N+](=O)[O-])c2)c(-c2cccc([N+](=O)[O-])c2)c1[N+](=O)[O-]
inactive: [1] > 100 µM | [2] > 100 µM | [3] > 100 µM | [4] 37.2 µM | [6] > 100 µM | [7] > 100 µM | [8] > 100 µM | [9] 22.1 µM | [10] > 100 µM | [16] > 100 µM | [17] 40.7 µM | [11] 59.8 µM | [12] > 100 µM | [13] > 100 µM | [14] > 100 µM

Cc1cc(Cl)ccc1NC(=O)C(=O)Cc1nc2ccc(C(=O)c3ccccc3)cc2nc1O
inactive: [15] > 100 µM | [1] > 100 µM | [2] > 100 µM | [3] > 100 µM | [4] > 100 µM | [5] > 100 µM | [6] > 100 µM | [7] 42.5 µM | [9] 35.6 µM | [10] 97.9 µM | [16] > 100 µM | [17] 7.4 µM | [11] 70 µM | [18] > 100 µM | [12] 75.3 µM | [14] > 100 µM

N#CCCN(c1ccc(/C=C2\N=C(Cc3ccccc3)OC2=O)cc1)S(=O)(=O)c1ccccc1
inactive: [15] > 100 µM | [1] > 100 µM | [2] > 100 µM | [3] > 100 µM | [4] > 100 µM | [5] > 100 µM | [6] > 100 µM | [7] > 100 µM | [8] > 100 µM | [9] > 100 µM | [10] > 100 µM | [16] > 100 µM | [11] > 100 µM | [18] > 100 µM | [12] > 100 µM | [13] > 100 µM | [14] > 100 µM
